Experimental data: the supplement of paper PMC4932681

What was measured:
BT-474 Tam1 [1] = assay: relative IC50 (midpoint of fitted logistic curve, plateau may be below 50% inhibition; CellTiter-Glo viability); higher = less potent; details: 4-OH-tamoxifen in medium 1 µM; 72 h
Description: (§1)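 FIMM FO2B library drugs were plated at 5 concentrations spanning a 10,000-fold range in 384-well plates. Cells were incubated for 72 h at 37 °C and viability was read by CellTiter-Glo, normalised to DMSO (0% inhibition) and 100 µM benzethonium chloride (100% inhibition). IC50 values come from logistic dose-response fits (Breeze pipeline). Tamoxifen-resistant lines and the 'in 1µM tamoxifen' parental arms were tested in medium with 1 µM 4-OH-tamoxifen.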

BT-474 Tam2 [2] = assay: as above; details: 4-OH-tamoxifen in medium 1 µM; 72 h
Description: as §1

T-47D [3] = assay: as above; details: 72 h
Description: as §1

ZR-75-1 [4] = assay: as above; details: 72 h
Description: as §1

ZR-75-1 Tam2 [5] = assay: as above; details: 4-OH-tamoxifen in medium 1 µM; 72 h
Description: as §1

BT-474 [6] = assay: as above; details: 72 h
Description: as §1

ZR-75-1 Tam1 [7] = assay: as above; details: 4-OH-tamoxifen in medium 1 µM; 72 h
Description: as §1

MCF-7 Tam1 = assay: drug sensitivity score (DSS) (DSS (dimensionless)); higher = more sensitive; extreme values may be limits of the assay; details: 4-OH-tamoxifen in medium 1 µM; 72 h
Description: (§2)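 FIMM FO2B library drugs were tested at 5 concentrations (10,000-fold range) for 72 h, with CellTiter-Glo viability normalised to DMSO and benzethonium chloride controls. The Drug Sensitivity Score (DSS) is computed from the fitted logistic dose-response curve (area-based; 0 = inactive). Resistant lines and the 'in 1µM tamoxifen' arms were tested in 1 µM 4-OH-tamoxifen.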

BT-474 Tam1 [8] = assay: as above; details: 4-OH-tamoxifen in medium 1 µM; 72 h
Description: as §2

BT-474 Tam2 [9] = assay: as above; details: 4-OH-tamoxifen in medium 1 µM; 72 h
Description: as §2

T-47D [10] = assay: as above; details: 72 h
Description: as §2

T-47D Tam2 = assay: as above; details: 4-OH-tamoxifen in medium 1 µM; 72 h
Description: as §2

ZR-75-1 [11] = assay: as above; details: 72 h
Description: as §2

ZR-75-1 Tam2 [12] = assay: as above; details: 4-OH-tamoxifen in medium 1 µM; 72 h
Description: as §2

MCF-7 [13] = assay: as above; details: 72 h
Description: as §2

BT-474 [14] = assay: as above; details: 72 h
Description: as §2

T-47D Tam1 [15] = assay: as above; details: 4-OH-tamoxifen in medium 1 µM; 72 h
Description: as §2

ZR-75-1 Tam1 [16] = assay: as above; details: 4-OH-tamoxifen in medium 1 µM; 72 h
Description: as §2

T-47D Tam1 [17] = assay: relative IC50 (midpoint of fitted logistic curve, plateau may be below 50% inhibition; CellTiter-Glo viability); higher = less potent; details: 4-OH-tamoxifen in medium 1 µM; 72 h
Description: as §1

MCF-7 [18] = assay: as above; details: 72 h
Description: as §1

Row | SMILES | relative IC50 (BT-474 Tam1 [1]) [nM] | relative IC50 (BT-474 Tam2 [2]) [nM] | relative IC50 (T-47D [3]; 4-OH-tamoxifen in medium 0 µM) [nM] | relative IC50 (T-47D [3]; 4-OH-tamoxifen in medium 1 µM) [nM] | relative IC50 (BT-474 [6]; 4-OH-tamoxifen in medium 0 µM) [nM] | relative IC50 (BT-474 [6]; 4-OH-tamoxifen in medium 1 µM) [nM] | relative IC50 (T-47D Tam1 [17]) [nM] | relative IC50 (MCF-7 [18]; 4-OH-tamoxifen in medium 0 µM) [nM] | relative IC50 (MCF-7 [18]; 4-OH-tamoxifen in medium 1 µM) [nM] | relative IC50 (ZR-75-1 [4]; 4-OH-tamoxifen in medium 0 µM) [nM] | relative IC50 (ZR-75-1 [4]; 4-OH-tamoxifen in medium 1 µM) [nM] | relative IC50 (ZR-75-1 Tam2 [5]) [nM] | relative IC50 (ZR-75-1 Tam1 [7]) [nM] | drug sensitivity score (MCF-7 Tam1) | drug sensitivity score (BT-474 Tam1 [8]) | drug sensitivity score (BT-474 Tam2 [9]) | drug sensitivity score (T-47D [10]; 4-OH-tamoxifen in medium 0 µM) | drug sensitivity score (T-47D [10]; 4-OH-tamoxifen in medium 1 µM) | drug sensitivity score (T-47D Tam2) | drug sensitivity score (ZR-75-1 [11]; 4-OH-tamoxifen in medium 0 µM) | drug sensitivity score (ZR-75-1 [11]; 4-OH-tamoxifen in medium 1 µM) | drug sensitivity score (ZR-75-1 Tam2 [12]) | drug sensitivity score (MCF-7 [13]; 4-OH-tamoxifen in medium 0 µM) | drug sensitivity score (MCF-7 [13]; 4-OH-tamoxifen in medium 1 µM) | drug sensitivity score (BT-474 [14]; 4-OH-tamoxifen in medium 0 µM) | drug sensitivity score (BT-474 [14]; 4-OH-tamoxifen in medium 1 µM) | drug sensitivity score (T-47D Tam1 [15]) | drug sensitivity score (ZR-75-1 Tam1 [16])
1 | Cn1cnc2c(F)c(Nc3ccc(Br)cc3F)c(C(=O)NOCCO)cc21 [MEK-162 (ARRY-162)] | > 1000 | > 1000 | > 1000 | > 1000 | > 1000 | – | – | – | – | > 1000 | > 1000 | > 1000 | > 1000 | 0 | 0 | 0 | 0 | 0 | 0.511 | 0 | 0 | 0 | 0.0194 | 1.02 | 0 | 1.07 | 3.1 | 0
2 | Cc1c(C(=O)Nc2ccc(N3C[C@@H](C)O[C@@H](C)C3)nc2)cccc1-c1ccc(OC(F)(F)F)cc1 [Erismodegib (NVP-LDE225)] | – | – | – | > 10000 | – | 3610 | > 10000 | – | – | > 10000 | – | > 10000 | – | 0.695 | 0.226 | 1.6 | 0.587 | 0 | 1.05 | 0 | 0.747 | 0 | 0.927 | 0.267 | 0.627 | 1.78 | 0 | 0.271
3 | CC(=O)Nc1cccc(-n2c(=O)n(C3CC3)c(=O)c3c(Nc4ccc(I)cc4F)n(C)c(=O)c(C)c32)c1 | > 250 | > 250 | > 250 | > 250 | > 250 | – | – | > 250 | – | > 250 | > 250 | > 250 | > 250 | 0.101 | 0 | 0 | 0 | 0.259 | 2.69 | 0 | 0 | 0 | 0 | 3.01 | 0 | 0.246 | 2.19 | 0
4 | COc1cc(OC2CCN(C)CC2)ccc1Nc1ncc2c(n1)n(C1CCCC1)c(=O)n2C [AZ 3146] | 3660 | – | – | – | > 10000 | 1590 | > 10000 | – | – | – | – | – | – | 0.007 | 3.57 | 0.781 | 1.1 | 0.111 | 0.886 | 0.724 | 0.0431 | 0.671 | 0.951 | 0.135 | 0 | 7.15 | 0 | 0.233

Now from value to compound, other results behind:

Row | relative IC50 (BT-474 Tam1 [1]) [nM] | relative IC50 (BT-474 Tam2 [2]) [nM] | relative IC50 (T-47D [3]; 4-OH-tamoxifen in medium 0 µM) [nM] | relative IC50 (T-47D [3]; 4-OH-tamoxifen in medium 1 µM) [nM] | relative IC50 (BT-474 [6]; 4-OH-tamoxifen in medium 0 µM) [nM] | relative IC50 (BT-474 [6]; 4-OH-tamoxifen in medium 1 µM) [nM] | relative IC50 (T-47D Tam1 [17]) [nM] | relative IC50 (MCF-7 [18]; 4-OH-tamoxifen in medium 0 µM) [nM] | relative IC50 (MCF-7 [18]; 4-OH-tamoxifen in medium 1 µM) [nM] | SMILES | relative IC50 (ZR-75-1 [4]; 4-OH-tamoxifen in medium 0 µM) [nM] | relative IC50 (ZR-75-1 [4]; 4-OH-tamoxifen in medium 1 µM) [nM] | relative IC50 (ZR-75-1 Tam2 [5]) [nM] | relative IC50 (ZR-75-1 Tam1 [7]) [nM] | drug sensitivity score (MCF-7 Tam1) | drug sensitivity score (BT-474 Tam1 [8]) | drug sensitivity score (BT-474 Tam2 [9]) | drug sensitivity score (T-47D [10]; 4-OH-tamoxifen in medium 0 µM) | drug sensitivity score (T-47D [10]; 4-OH-tamoxifen in medium 1 µM) | drug sensitivity score (T-47D Tam2) | drug sensitivity score (ZR-75-1 [11]; 4-OH-tamoxifen in medium 0 µM) | drug sensitivity score (ZR-75-1 [11]; 4-OH-tamoxifen in medium 1 µM) | drug sensitivity score (ZR-75-1 Tam2 [12]) | drug sensitivity score (MCF-7 [13]; 4-OH-tamoxifen in medium 0 µM) | drug sensitivity score (MCF-7 [13]; 4-OH-tamoxifen in medium 1 µM) | drug sensitivity score (BT-474 [14]; 4-OH-tamoxifen in medium 0 µM) | drug sensitivity score (BT-474 [14]; 4-OH-tamoxifen in medium 1 µM) | drug sensitivity score (T-47D Tam1 [15]) | drug sensitivity score (ZR-75-1 Tam1 [16])
5 | > 10000 | > 10000 | > 10000 | > 10000 | > 10000 | > 10000 | – | – | – | CC[C@H](CO)Nc1nc(NCc2ccccc2)c2ncn(C(C)C)c2n1 [Seliciclib (Roscovitine)] | > 10000 | > 10000 | > 10000 | > 10000 | 0.0488 | 0 | 0 | 0 | 0 | 0.682 | 0 | 0 | 0 | 0.816 | 0.217 | 0 | 0 | 4 | 0
6 | 3210 | – | > 10000 | > 10000 | > 10000 | – | – | – | 2080 | COc1ccc(C2=N[C@@H](c3ccc(Cl)cc3)[C@@H](c3ccc(Cl)cc3)N2C(=O)N2CCNC(=O)C2)c(OC(C)C)c1 [Nutlin-3] | 2790 | – | 1350 | 1900 | 0.214 | 1.52 | 2.34 | 0 | 0 | 0.429 | 1.96 | 2.65 | 4.17 | 2.64 | 3.36 | 0 | 0.0005 | 0.605 | 2.29
7 | – | – | – | 1810 | – | 305 | 1490 | – | – | CO[C@@H]1[C@H](N(C)C(=O)c2ccccc2)C[C@H]2O[C@]1(C)n1c3ccccc3c3c4c(c5c6ccccc6n2c5c31)C(=O)NC4 [Midostaurin (PKC412)] | > 10000 | > 10000 | > 10000 | > 10000 | 1.28 | 0.189 | 1.88 | 1.37 | 3.14 | 1.85 | 0 | 0 | 0 | 0.329 | 0.519 | 3.45 | 7.09 | 3.03 | 0
8 | – | > 10000 | > 10000 | > 10000 | > 10000 | – | 975 | – | – | Cn1cnc2c(F)c(Nc3ccc(Br)cc3Cl)c(C(=O)NOCCO)cc21 [Selumetinib  (AZD6244)] | > 10000 | > 10000 | > 10000 | > 10000 | 0.168 | 0.393 | 0 | 0 | 0 | 0.0086 | 0 | 0 | 0 | 0.0626 | 1.86 | 0 | 2.57 | 8.55 | 0
